“Also recorded” adds a separate entry of the source.
Columns and labels:
[1] = system: mouse psoriasis model induced by 5% IMQ; assay: mRNA level of related inflammatory factors (qPCR) at lesion of mouse psoriasis model; format: in vivo; details: 5% IMQ model
Experimental: 20 mg of skin tissues were grinded to powder with liquid nitrogen, added with 0.5 mL of Trizol (Vazyme, article number: R401-01), and incubated on ice for 10 minutes. A split product was transferred to a 1.5 mL RNase-free centrifuge tube, added with 100 μL of chloroform, then shaken vigorously for 15 seconds, stood on ice for 2 minutes, and then centrifuged at 4° C. at 12000 rpm for 10 minutes. A water phase on an upper layer was absorbed into a new 1.5 mL RNase-free centrifuge tube, added with the same amount of isopropanol to precipitate RNA, and then centrifuged at 4° C. at 12000 rpm for 10 minutes. A supernatant was discarded, 500 μL of 75% ethyl alcohol prepared with DEPC water was added to wash the RNA precipitate, and then centrifuged at 4° C. at 12000 rpm for 5 minutes. A supernatant was discarded, the RNA precipitate was slightly dried, and the RNA was dissolved with 10 μL of DEPC water. 1 μL of the mixture was subjected to concentration detection by a detection instrument which was Nano-100 ultra-micro spectrophotometer (Hangzhou Aosheng Instrument Co., Ltd., article number: AS-11010). Another 500 ng of the RNA was subjected to a reverse transcription reaction, which was operated according to instructions of HiScript® II One Step RT-PCR Kit (Vazyme, article number: P611-01). A reverse transcription product was stored at −20° C. for later use. […]

[2] = system: mouse psoriasis model induced by 5% IMQ; assay: PASI score of mouse psoriasis model induced by imiquimod under drug intervention; format: in vivo; details: for PASI score: n = 8, mean ± SD
Description: 16 C57BL/6 mice, with half male and half female were purchased from the Experimental Animal Center of Nanjing Medical University, wherein weights of the mice ranged from 18 g to 20 g. Back hair of the mice was shaved off, and then the mice were randomly divided into 2 groups (8 mice in each group) according to male and female genders. Before experiment, the mice were placed in a quiet environment kept away from strong light for 3 days to adapt to the environment, a ratio of an illuminating time to a dark time was 1:1, a room temperature was controlled at 25° C., a humidity was 55%, and the mice could eat and drink freely. 62.5 mg of 5% (0.1 g:2 g) imiquimod ointment (Zhuhai United Laboratories Co., Ltd.) was continuously applied to back skins of the mice for 6 days to induce a psoriasis-like lesion, while the same dose of vaseline ointment was given to the control group.
The clinical symptom of the mouse psoriasis model was evaluated by a PASI scoring standard from three indicators of erythema, scale and infiltration thickening. The scores ranged from 0 point to 4 points, and a total score was obtained by adding scores of the three indicators. The PASI scoring standard was as follows: 0 point referred to no symptom; 1 point referred to a mild degree; 2 points referred to a moderate degree; 3 points referred to a severe degree; and 4 points referred to an extremely severe degree. The PASI evaluation was conducted daily before the IMQ ointment was applied.
C57BL/6 mice, with half male and half female were purchased from the Experimental Animal Center of Nanjing Medical University, wherein weights of the mice ranged from 18 g to 20 g. The C57BL/6 mice were randomly divided into 4 groups (8 mice in each group). Mouse psoriasis models were established as described in Embodiment 2 (1). […]
Back skins of the mice were photographed and recorded on the 1st, 3rd and 5th days after modeling.

[3] = subcutaneous injection, 5% IMQ model

In the case of `O=c1cc(-c2ccc(O)cc2)oc2cc(O)c(O)c(O)c12` [Scutellarein], the “transcription (mRNA level) of the related inflammatory factors” value [1] is reported as “obviously reduce”, the PASI score ([2]; day 1, 0.1‰ scutellarein s.c. 100 μL twice a day + imiquimod) is reported as 0.0 ± 0.0 and the PASI score ([2]; day 1, 0.2‰ scutellarein s.c. 100 μL twice a day + imiquimod) is reported as 0.0 ± 0.0. The PASI score ([2]; day 2, 0.1‰ scutellarein s.c. 100 μL twice a day + imiquimod) was 0.5 ± 0.6, the PASI score ([2]; day 2, 0.2‰ scutellarein s.c. 100 μL twice a day + imiquimod) was 0.0 ± 0.0 and the PASI score ([2]; day 3, 0.1‰ scutellarein s.c. 100 μL twice a day + imiquimod) was 1.8 ± 0.9. It also gave a PASI score ([2]; day 3, 0.2‰ scutellarein s.c. 100 μL twice a day + imiquimod) of 0.5 ± 0.6, a PASI score ([2]; day 4, 0.1‰ scutellarein s.c. 100 μL twice a day + imiquimod) of 1.8 ± 1.0 and a PASI score ([2]; day 4, 0.2‰ scutellarein s.c. 100 μL twice a day + imiquimod) of 0.8 ± 0.9. For the same compound, the PASI score ([2]; day 5, 0.1‰ scutellarein s.c. 100 μL twice a day + imiquimod) was 3.0 ± 0.8, the PASI score ([2]; day 5, 0.2‰ scutellarein s.c. 100 μL twice a day + imiquimod) was 2.0 ± 1.2 and the “occurrence of the lesion induced by imiquimod” value [2, 3] was “delay occurrence of the lesion”. The “psoriasis-like lesion on the back skins of the mice (appearance)” value [2, 3] was “could relieve the psoriasis-like lesion; also recorded: can improve the lesion; also recorded: significantly relieve”.
